This is an account of results in patent US8946234B2, “Halogen-substituted compounds” (Bayer CropScience AG, priority 2008, dated 2015).

One data set in a line: physchem. The data set is classed as physicochemical.
Settings: not given
As to the method:
^a) Note regarding the determination of the log P values and mass detection: The log P values given were determined in accordance with EEC Directive 79/831 Annex V.A8 by HPLC (High Performance Liquid Chromatography) on a phase inversion column (C18). Agilent 1100 LC system; 50*4.6 Zorbax Eclipse Plus C18 1.8 micron; eluent A: acetonitrile (0.1% formic acid); eluent B: water (0.09% formic acid); linear gradient from 10% acetonitrile to 95% acetonitrile in 4.25 min, then 95% acetonitrile for a further 1.25 min; oven temperature 55° C.; flow: 2.0 ml/min. The mass detection is carried out via an Agilend MSD system.
Consider `Cn1nc(-c2ccc(OC(F)(F)F)cc2)c(Br)c1C(=O)Nc1ccc(Cl)c(C(=O)NCC(F)(F)F)c1` [Ik-255], for which the logP is on record as 4.15^a). Same read-out and setting: then `Cn1nc(C(F)(F)F)c(Br)c1C(=O)Nc1ccc(Cl)c(C(=O)NCC(F)(F)F)c1` [Ik-160], with 3.17^a); and `O=C(NCC=CCl)c1cc(NC(=O)c2ncc(C(F)(F)F)cc2Cl)ccc1Cl` [Ii-4], with 2.93^a).

On to `CCn1nc(C(F)(F)C(F)(F)F)c(C(F)(F)F)c1C(=O)Nc1ccc(Cl)c(C(=O)NCC(F)(F)F)c1` [Ik-216], for which the logP is 3.93^a). For the compound `CC(NC(=O)c1cc(NC(=O)c2c(Br)c(C(F)(F)C(F)(F)F)nn2C)ccc1Cl)C(F)(F)F` (stereo not shown) [Ik-11], the logP was 2.00^a). Regarding `Cn1nc(C(F)(F)C(F)(F)F)c(C(F)(F)F)c1C(=O)Nc1cc(Br)cc(C(=O)NCC(F)(F)F)c1` [Ik-223], the logP is reported as 4.09^a).

On to `O=C(NCC=CCl)c1cc(NC(=O)c2nccc(C(F)(F)F)c2Cl)ccc1Cl` [Ie-4], for which the logP is on record as 2.92^a).

`CC(C)N(C(=O)c1c(C(F)(F)F)c(C(F)(F)C(F)(F)F)nn1C)c1ccc(Cl)c(C(=O)NCC(F)(F)F)c1` [Ik-139]: the logP was 4.02^a). On the same count and under the same terms, then `Cn1nc(C(F)(F)C(F)(F)F)c(C(F)(F)F)c1C(=O)Nc1cc(F)c(Cl)c(C(=O)NCc2ccccc2)c1` [Ik-189], with 4.14^a); and `COC(=O)COC(=O)c1cc(NC(=O)c2c(C(F)(F)F)c(C(F)(F)C(F)(F)F)nn2C)ccc1Cl` [Ik-107], with 4.03^a). With `Cn1nc(C(F)(F)C(F)(F)F)c(C(F)(F)F)c1C(=O)Nc1cc(F)c(F)c(C(=O)NC2CC2)c1` [Ik-140], the logP was 3.60^a). In the case of `O=C(NCC(F)(F)F)c1cc(NC(=O)c2cnc(C(F)(F)C(F)(F)F)nc2C(F)(F)C(F)(F)F)ccc1Cl` [Ib-34], the logP was 3.94^a). On the same count and under the same terms, with `Cn1nc(C(F)(F)C(F)(F)F)c(C(F)(F)F)c1C(=O)Nc1cc(F)c(F)c(C(=O)NC2CC2)c1F` [Ik-169] the figure was 3.53^a). Still for that read-out and setting: with `Cn1nc(C(F)(F)C(F)(F)F)c(C(F)(F)F)c1C(=O)Nc1ccc(Cl)c(C(=O)NCC(F)F)c1` [Ik-86] the figure was 3.41^a); with `Cn1nc(C(F)(F)C(F)(F)F)c(C(F)(F)F)c1C(=O)Nc1ccc(Cl)c(C(=O)NCC=CCl)c1` [Ik-83], 3.72^a); with `CC(NC(=O)c1cc(NC(=O)c2c(Br)c(C(F)(F)F)nn2C)ccc1Cl)C(F)(F)F` (stereo not shown) [Ik-158], 3.40^a).

For `Cn1nc(-c2ccc(C(F)(F)F)cc2)c(Br)c1C(=O)Nc1ccc(Cl)c(C(=O)NC2CC2)c1` [Ik-249], the logP is on record as 3.63^a). Same read-out and setting: then `CSc1c(Br)cc(NC(=O)c2c(C(F)(F)F)c(C(F)(F)C(F)(F)F)nn2C)cc1C(=O)NCc1ccccc1` [Ik-199], with 4.43^a); and `CCOC(=O)c1cc(NC(=O)c2c(C(F)(F)F)c(C(F)(F)C(F)(F)F)nn2C)ccc1Cl` [Ik-103], with 4.42^a).

On to `CC(C)(C)n1nc(C(F)(F)C(F)(F)F)c(C(F)(F)F)c1C(=O)Nc1ccc(Cl)c(C(=O)NC2CC2)c1` [Ik-167], for which the logP is reported as 4.17^a). Same read-out and setting: then `CC(NC(=O)c1cc(NC(=O)c2c(C(F)(F)F)c(C(F)(F)C(F)(F)F)nn2C)ccc1F)C(F)(F)F` (stereo not shown) [Ik-161], with 3.89^a).

The same data set, now with this note: HPLC method a), eluent acetonitrile/water with formic acid; read-out: logP.
On to `Cn1nc(C(F)(F)C(F)(F)C(F)(F)C(F)(F)F)c(Br)c1C(=O)O` [4-Bromo-1-methyl-3-nonafluorobutyl-1H-pyrazole-5-carboxylic acid], for which the chromatographic logP came to 3.17.

The data set is the same for the next values; noted with them: HPLC phase inversion (reversed-phase) C18 column, HPLC method a), eluent acetonitrile/water with formic acid; read-out: logP.
Regarding `COC(=O)c1c(Cl)cnc(N)c1Cl` [methyl 2-amino-3,5-dichloroisonicotinate], the chromatographic logP stood at 1.75. For `Cn1ccc(C(F)(F)C(F)(F)F)n1` [1-Methyl-3-pentafluoroethyl-1H-pyrazole], the chromatographic logP is 2.29.

Staying with this data set, now noted: logP.
`Cn1nc(C(F)(F)OC(F)(F)OC(F)(F)F)cc1C(=O)O` [3-{[Difluoro(trifluoromethoxy)methoxy](difluoro)methyl}-1-methyl-1H-pyrazole-5-carboxylic acid] had a chromatographic logP of 3.38.
